3 compounds from patent US20190175598A1, “COMBINATION THERAPIES FOR THE TREATMENT OF HEPATOCELLULAR CARCINOMA” (Eisai R&D Management Co., Ltd., priority 2016, published 2019) can be followed below.

The subject of assay [1] is human primary hepatocellular carcinoma model LIX066. In words: LIX066 patient derived xenograft model of hepatocellular carcinoma, antitumor activity. It is filed as in vivo, mice. Particulars: Example 3, oral daily 17 days. As to the method: The human primary hepatocellular carcinoma model LIX066 model from ChemPartner (shangpharma.com) were implanted into the female severe combined immunodeficiency (SCID) mice. When the tumors developed in mice, the mice were sacrificed and the tumors were resected and implanted into female nude mice for tumor preservation, histopathology diagnosis and in vivo efficacy study. Solid tumor tissues were depleted of necrotic components, cut into 10-15 mg pieces, and mixed. Three to five pieces were mixed with […] Matrigel and implanted into a flank of 6-8-week-old female NU/NU immune compromised mice weighing 18-20 g nude mice. 30 mice with average tumor volume of 160 mm^3 selected and randomized into 6 groups of 5 mice each. All of the primary human tumors utilized in this study had undergone 3-5 passages in vivo and the tumor histology of each was maintained over the serial transplantation process. Per os (PO) treatment with Compound 1 (300 and 500 mg/kg) alone or in combination with vehicle (control) or palbociclib (100 mg/kg) administered once daily (QD) continued for 17 days. The administration volume (0.1 mL/10 g body weight) was calculated from the individual mouse body weight (BW) before administration. Body weights were measured daily and tumor measurements were performed twice weekly.
(§1) where Day X is any day of measurement
(§2) The anti-tumor effects of the treatment, Partial (PR) and complete regression (CR), stable (SD) and progressive (PD) disease were defined by the Xenograft Model Response Criteria (see below). Mice with >20% body weight loss compared to their Day 1 body weight or bearing tumors with the longest diameter […] were immediately euthanized to prevent any pain or suffering in the animal as according to IACUC guidelines.
Data are expressed as the mean±SEM for Tumor Volume (TV). The differences in TV between groups were analyzed by two way ANOVA followed by Sidak post hoc test. Statistical analyses were performed using the GraphPad Prism version 6 (GraphPad Software, La Jolla, Calif.). […]
A general note: In xenograft studies the graft and the host belong to different species.

The subject of assay [2] is human hepatocellular cancer cell line JHH7 xenograft. In words: JHH7 xenograft model of hepatocellular carcinoma, antitumor activity. It is filed as in vivo, mice. Particulars: PO QD 8 days. How it is done:
The cell line used, JHH7, was sourced from Japanese Collection of Research Bioresources Cell Bank (JCRB), verified free of mycobacterium contamination and verified for identity by short tandem repeat analysis of 9 markers.
JHH7 cells were maintained in William's E Medium (Thermo Fisher Scientific, 12551-032) with 10% fetal bovine serum. Cells were maintained prior to and during experiments at 37° C. 5% CO2, and at 95% relative humidity. Cell passage number was limited to between 12 and 20.
The human hepatocellular cancer cell line JHH7 was cultured in William's E Medium (Thermo Fisher Scientific, 12551-032) containing 10% fetal bovine serum at 37° C. in a 5% CO2 atmosphere and kept in exponential growth phase. For harvesting, the cells were washed with phosphate buffered saline, incubated with 0.25% trypsin-EDTA, and suspended in a 1:1 mixture of William's E Medium and Matrigel (Corning) at a final concentration of 5×10^7 cells/mL. To generate xenografts, 0.1-mL of the inoculum was injected subcutaneously into the right flank region of NU/NU immuno compromised 6-8 week old female mice, giving a final concentration of 5×10^6 cells/mouse. When the mean tumor volume (TV) reached approximately 170 mm^3 (10 days after implantation), 144 mice were selected based on their TVs, and were sorted into 18 treatment groups with 8 animals per group. Per os (PO) treatment with Compound 1 (300 and 500 mg/kg) alone or in combination with vehicle (control) or palbociclib (50 and 100 mg/kg) or ribociclib (75 and 150 mg/kg) administered once daily (QD) continued for 8 days. The administration volume (0.1 mL/10 g body weight) was calculated from the individual mouse body weight (BW) before administration. Body weights were measured daily and tumor measurements were performed twice weekly.
as §1, §2
Data are expressed as the mean±SEM for Tumor Volume (TV). The differences in TV between groups were analyzed by two way ANOVA followed by Sidak post hoc test. Statistical analyses were performed using the GraphPad Prism version 6 (GraphPad Software, La Jolla, Calif.).
Progressive disease (PD): 3 consecutive measurements >120% of starting volume or 3 consecutive increasing measurements from best response, Stable disease (SD): 3 consecutive measurements >50% and <120% of starting volume, Partial regression (PR): 3 consecutive measurements <50% of starting volume, Complete regression (CR): 3 consecutive measurements <30 mm^3.

For `C=CC(=O)Nc1cc(N2CCN(CC)CC2)ccc1Nc1cc(N(C)C(=O)Nc2c(Cl)c(OC)cc(OC)c2Cl)ncn1` [Compound 1, N-(2-((6-(3-(2,6-dichloro-3,5-dimethoxyphenyl)-1-methylureido)pyrimidin-4-yl)amino)-5-(4-ethylpiperazin-1-yl)phenyl)acrylamide], the “Tumor Growth Inhibition % (TGI)” value in assay [1] (Compound 1 300 mg/kg single agent, vs vehicle controls (P≤0.0001)) was 59%; in assay [1] (Compound 1 500 mg/kg single agent, vs vehicle controls (P≤0.0001)), 70%; in assay [2] (Example 1, Compound 1 300 mg/kg single agent, vs vehicle controls), 14%; in assay [2] (Example 1, Compound 1 500 mg/kg single agent, vs vehicle controls), 35%; in assay [2] (Example 2, Compound 1 300 mg/kg single agent, vs vehicle controls (P≤0.01)) it was 12%; in assay [2] (Example 2, Compound 1 500 mg/kg single agent, vs vehicle controls (P≤0.0001)), 32%.
With `CN(C)C(=O)c1cc2cnc(Nc3ccc(N4CCNCC4)cn3)nc2n1C1CCCC1` [Ribociclib, 7-Cyclopentyl-2-(5-piperazin-1-yl-pyridin-2-ylamino)-7H-pyrrolo[2,3-d]pyrimidine-6-carboxylic acid dimethylamide, reference compound], the “Tumor Growth Inhibition % (TGI)” value was found to be 13% in assay [2] (Example 1, ribociclib 75 mg/kg single agent, vs vehicle controls (not significant)) and 23% in assay [2] (Example 1, ribociclib 150 mg/kg single agent, vs vehicle controls (P≤0.0001)).
As to `CC(=O)c1c(C)c2cnc(Nc3ccc(N4CCNCC4)cn3)nc2n(C2CCCC2)c1=O` [Palbociclib, 6-acetyl-8-cyclopentyl-5-methyl-2-{[5-(piperazin-1-yl)pyridin-2-yl]amino}pyrido[2,3-d]pyrimidin-7(8H)-one, reference compound], the “Tumor Growth Inhibition % (TGI)” value in assay [1] (palbociclib 100 mg/kg single agent, vs vehicle controls (P≤0.001)) is recorded as 62%; in assay [2] (Example 2, palbociclib 50 mg/kg single agent, vs vehicle controls (not significant)), 11%; in assay [2] (Example 2, palbociclib 100 mg/kg single agent, vs vehicle controls (P≤0.05)), 26%.
